Measured values taken from ChEMBL document CHEMBL5393442, “Combined inhibition of amino acid transporters for inhibiting human plasmacytoid dendritic cell activity during autoimmunity” (2022).
Activity calls are given as the source filed them. No cut-off for these calls is given here.

Experiments:
[1] = molecular target: Tyrosine-protein kinase JAK2 (Homo sapiens) (UniProt O60674); assay: Inhibition of JAK2 in TLR9-activated human plasmacytoid dendritic cells at 20 nM assessed as decrease in CpG-A stimulated SLC7A11 expression; format: cell-based; details: Plasmacytoid dendritic cell
Sequence of Tyrosine-protein kinase JAK2 (Homo sapiens) (O60674 whole entry): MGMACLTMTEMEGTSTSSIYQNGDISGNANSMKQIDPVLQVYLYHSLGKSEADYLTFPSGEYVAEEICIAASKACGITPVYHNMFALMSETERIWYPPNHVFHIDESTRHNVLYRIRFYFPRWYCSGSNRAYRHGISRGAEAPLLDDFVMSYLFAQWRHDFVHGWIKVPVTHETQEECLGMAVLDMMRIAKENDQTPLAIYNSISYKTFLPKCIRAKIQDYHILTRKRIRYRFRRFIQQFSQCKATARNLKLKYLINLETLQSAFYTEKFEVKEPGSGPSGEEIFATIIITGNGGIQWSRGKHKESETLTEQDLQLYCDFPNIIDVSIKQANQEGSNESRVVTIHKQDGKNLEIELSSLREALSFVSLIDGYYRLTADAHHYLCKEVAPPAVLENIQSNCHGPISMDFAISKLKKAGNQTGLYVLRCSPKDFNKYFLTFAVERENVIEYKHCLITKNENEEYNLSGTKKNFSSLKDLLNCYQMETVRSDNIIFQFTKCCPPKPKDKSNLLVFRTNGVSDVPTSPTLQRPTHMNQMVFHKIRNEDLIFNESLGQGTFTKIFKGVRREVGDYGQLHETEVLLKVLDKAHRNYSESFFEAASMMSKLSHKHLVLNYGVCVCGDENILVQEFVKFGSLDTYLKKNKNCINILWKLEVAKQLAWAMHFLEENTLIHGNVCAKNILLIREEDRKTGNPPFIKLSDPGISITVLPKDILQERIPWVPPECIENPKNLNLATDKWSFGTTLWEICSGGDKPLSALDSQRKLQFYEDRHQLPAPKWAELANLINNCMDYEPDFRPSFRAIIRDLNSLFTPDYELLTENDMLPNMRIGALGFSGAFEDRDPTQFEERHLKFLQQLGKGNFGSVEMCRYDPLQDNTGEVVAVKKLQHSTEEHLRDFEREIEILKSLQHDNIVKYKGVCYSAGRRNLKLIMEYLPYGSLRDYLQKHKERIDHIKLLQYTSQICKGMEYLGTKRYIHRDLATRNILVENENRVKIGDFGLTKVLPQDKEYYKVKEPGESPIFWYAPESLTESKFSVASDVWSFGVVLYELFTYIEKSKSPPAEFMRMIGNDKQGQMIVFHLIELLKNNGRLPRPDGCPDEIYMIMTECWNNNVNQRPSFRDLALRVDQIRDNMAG

[2] = molecular target: Tyrosine-protein kinase JAK2 (Homo sapiens) (UniProt O60674); assay: Inhibition of JAK2 in IL3- and CpG-A-activated human plasmacytoid dendritic cells at 20 nM assessed as decrease in ENPP2/IFNA2 expression; format: cell-based; details: Plasmacytoid dendritic cell
[3] = molecular target: Tyrosine-protein kinase JAK2 (Homo sapiens) (UniProt O60674); assay: Inhibition of JAK2 in IL3- and CpG-A-activated human plasmacytoid dendritic cells at 20 nM assessed as decrease in MYO1E/IFNA2 expression; format: cell-based; details: Plasmacytoid dendritic cell
[4] = molecular target: T1, mTORC1 (Homo sapiens) (UniProt P42345+Q8N122+Q9BVC4); details: Plasmacytoid dendritic cell, dose 250.0 nM
T1 sequence (Q8N122 whole entry, looked up, other chains not shown): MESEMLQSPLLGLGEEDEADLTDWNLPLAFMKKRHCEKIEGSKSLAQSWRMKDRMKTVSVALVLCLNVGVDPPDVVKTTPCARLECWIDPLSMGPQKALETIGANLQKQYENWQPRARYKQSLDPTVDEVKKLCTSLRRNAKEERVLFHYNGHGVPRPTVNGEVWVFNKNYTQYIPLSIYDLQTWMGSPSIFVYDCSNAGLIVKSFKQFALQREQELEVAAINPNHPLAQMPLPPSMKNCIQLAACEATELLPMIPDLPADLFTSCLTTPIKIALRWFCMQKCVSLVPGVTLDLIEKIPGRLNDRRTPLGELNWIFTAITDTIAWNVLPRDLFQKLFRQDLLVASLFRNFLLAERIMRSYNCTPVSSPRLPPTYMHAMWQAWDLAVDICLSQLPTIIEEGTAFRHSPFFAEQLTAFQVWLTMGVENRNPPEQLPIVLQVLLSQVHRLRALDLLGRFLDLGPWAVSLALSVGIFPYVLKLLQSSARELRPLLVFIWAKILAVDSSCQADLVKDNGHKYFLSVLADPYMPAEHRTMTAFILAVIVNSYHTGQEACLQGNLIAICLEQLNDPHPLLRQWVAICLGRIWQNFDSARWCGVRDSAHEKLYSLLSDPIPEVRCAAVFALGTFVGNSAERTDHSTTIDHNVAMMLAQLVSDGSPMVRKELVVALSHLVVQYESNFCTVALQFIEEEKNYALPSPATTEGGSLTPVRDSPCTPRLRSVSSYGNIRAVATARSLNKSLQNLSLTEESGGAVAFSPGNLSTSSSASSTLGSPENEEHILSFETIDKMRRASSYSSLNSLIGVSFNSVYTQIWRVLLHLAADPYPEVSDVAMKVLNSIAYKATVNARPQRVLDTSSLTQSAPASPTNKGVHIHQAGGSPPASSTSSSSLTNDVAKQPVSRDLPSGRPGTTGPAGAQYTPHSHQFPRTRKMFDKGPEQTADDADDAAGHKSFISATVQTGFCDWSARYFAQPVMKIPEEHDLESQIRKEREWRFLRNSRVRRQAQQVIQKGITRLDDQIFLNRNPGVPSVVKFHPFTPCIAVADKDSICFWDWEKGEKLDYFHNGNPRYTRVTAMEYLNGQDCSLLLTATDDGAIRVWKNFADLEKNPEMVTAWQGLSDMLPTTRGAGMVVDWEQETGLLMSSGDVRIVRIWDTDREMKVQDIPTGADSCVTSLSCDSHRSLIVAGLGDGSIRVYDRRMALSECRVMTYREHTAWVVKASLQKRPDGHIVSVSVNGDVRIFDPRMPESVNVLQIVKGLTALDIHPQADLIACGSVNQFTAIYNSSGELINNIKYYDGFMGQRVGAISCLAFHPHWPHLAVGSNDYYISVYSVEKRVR
T1 sequence (Q9BVC4 whole entry, looked up, other chains not shown): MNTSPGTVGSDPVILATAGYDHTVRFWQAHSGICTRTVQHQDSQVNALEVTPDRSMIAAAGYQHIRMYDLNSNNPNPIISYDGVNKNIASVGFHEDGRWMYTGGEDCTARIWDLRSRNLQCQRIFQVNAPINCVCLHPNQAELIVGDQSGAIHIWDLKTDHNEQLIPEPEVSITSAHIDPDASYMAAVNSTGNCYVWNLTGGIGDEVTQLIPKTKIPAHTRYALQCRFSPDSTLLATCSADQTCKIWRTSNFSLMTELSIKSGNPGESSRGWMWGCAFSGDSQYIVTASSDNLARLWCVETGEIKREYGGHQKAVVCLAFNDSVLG
Description: Inhibition of mTORC1 in CpG-A-stimulated human plasmacytoid dendritic cells at 250 nM assessed as decrease in lactate release

[5] = molecular target: T1, mTORC1 (Homo sapiens); details: Plasmacytoid dendritic cell, dose 20.0 nM
Description: Inhibition of mTORC1 in CpG-A-stimulated human plasmacytoid dendritic cells at 20 nM assessed as decrease in lactate release

[6] = molecular target: T2, Cystine/glutamate transporter (Homo sapiens) (UniProt Q9UPY5); assay: Inhibition of XCT in CpG-A-activated human plasmacytoid dendritic cells at 200 uM assessed as decrease in IFN-alpha production; format: cell-based; details: Plasmacytoid dendritic cell
T2 sequence (whole entry): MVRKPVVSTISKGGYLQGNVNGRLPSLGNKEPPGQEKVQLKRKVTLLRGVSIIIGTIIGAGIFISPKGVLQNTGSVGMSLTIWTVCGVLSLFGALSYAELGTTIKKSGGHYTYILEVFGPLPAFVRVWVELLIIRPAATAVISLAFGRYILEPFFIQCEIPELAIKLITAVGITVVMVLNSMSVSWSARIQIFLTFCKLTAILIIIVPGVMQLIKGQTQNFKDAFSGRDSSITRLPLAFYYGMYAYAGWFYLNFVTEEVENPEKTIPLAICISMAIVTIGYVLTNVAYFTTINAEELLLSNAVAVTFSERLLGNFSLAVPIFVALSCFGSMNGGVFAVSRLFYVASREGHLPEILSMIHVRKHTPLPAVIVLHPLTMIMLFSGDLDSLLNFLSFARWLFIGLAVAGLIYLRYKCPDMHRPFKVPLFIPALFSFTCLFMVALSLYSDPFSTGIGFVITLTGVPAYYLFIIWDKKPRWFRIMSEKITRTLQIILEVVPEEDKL

[7] = molecular target: T2, Cystine/glutamate transporter (Homo sapiens); assay: Inhibition of XCT in CpG-A-activated human plasmacytoid dendritic cells at 200 uM assessed as decrease in TNF production; format: cell-based; details: Plasmacytoid dendritic cell
[8] = molecular target: T2, Cystine/glutamate transporter (Homo sapiens); assay: Inhibition of XCT in CpG-A-activated human plasmacytoid dendritic cells at 200 uM assessed as decrease in S6 phosphorylation; format: cell-based; details: Plasmacytoid dendritic cell
[9] = molecular target: T2, Cystine/glutamate transporter (Homo sapiens); assay: Inhibition of XCT in CpG-A-activated human plasmacytoid dendritic cells at 200 uM assessed as decrease in kynurenine uptake; format: cell-based; details: Plasmacytoid dendritic cell
[10] = molecular target: T2, Cystine/glutamate transporter (Homo sapiens); assay: Inhibition of XCT in CpG-A-activated human plasmacytoid dendritic cells at 200 uM assessed as decrease in ENPP2 expression; format: cell-based; details: Plasmacytoid dendritic cell
[11] = molecular target: T2, Cystine/glutamate transporter (Homo sapiens); assay: Inhibition of XCT in CpG-A-activated human plasmacytoid dendritic cells at 200 uM assessed as decrease in MYO1E expression; format: cell-based; details: Plasmacytoid dendritic cell
[12] = molecular target: T2, Cystine/glutamate transporter (Homo sapiens); assay: Inhibition of XCT in CpG-A-activated human plasmacytoid dendritic cells at 100 uM assessed as decrease in IFN-alpha production in presence of 25 to 100 uM baricitinib; format: cell-based; details: Plasmacytoid dendritic cell
[13] = molecular target: Tyrosine-protein kinase JAK2 (Homo sapiens) (UniProt O60674); assay: Inhibition of JAK2 in CpG-A-activated human plasmacytoid dendritic cells at 100 uM assessed as decrease in TNF production in presence of 25 to 100 uM baricitinib; format: cell-based; details: Plasmacytoid dendritic cell
[14] = molecular target: T3, Cystine/glutamate transporter (Homo sapiens, UniProt Q9UPY5); assay: Inhibition of XCT (unknown origin)
T3 sequence (Q9UPY5 whole entry): T2 sequence (whole entry)

[15] = tested on: Plasmacytoid dendritic cell; assay: Inhibition of mTORC1/mTORC2 in CpG-A and IL-3-activated human plasmacytoid dendritic cells at 200 ng/mL assessed as decrease in SLC7A5 expression; format: cell-based
[16] = tested on: Plasmacytoid dendritic cell; assay: Inhibition of mTORC1/mTORC2 in CpG-A and IL-3-activated human plasmacytoid dendritic cells at 200 ng/mL assessed as decrease in SLC3A2 expression; format: cell-based
[17] = tested on: Plasmacytoid dendritic cell; assay: Inhibition of mTORC1/mTORC2 in CpG-A and IL-3-activated human plasmacytoid dendritic cells at 200 ng/mL assessed as decrease in IFN-alpha production; format: cell-based
[18] = tested on: Plasmacytoid dendritic cell; assay: Inhibition of mTORC1/mTORC2 in CpG-A and IL-3-activated human plasmacytoid dendritic cells at 200 ng/mL assessed as decrease in TNF production; format: cell-based
[19] = tested on: Plasmacytoid dendritic cell; assay: Inhibition of mTORC1/mTORC2 in TLR9-activated human plasmacytoid dendritic cells at 1 uM assessed as decrease in CpG-A stimulated SLC7A11 expression; format: cell-based
[20] = tested on: Plasmacytoid dendritic cell; assay: Inhibition of mTORC1/mTORC2 in IL-3 and CpG-A-activated human plasmacytoid dendritic cells at 200 nM assessed as decrease in decrease in ENPP2/IFNA2 expression; format: cell-based
[21] = tested on: Plasmacytoid dendritic cell; assay: Inhibition of mTORC1/mTORC2 in IL-3 and CpG-A-activated human plasmacytoid dendritic cells at 200 nM assessed as decrease in decrease in MYO1E/IFNA2 expression; format: cell-based
[22] = molecular target: T2, Cystine/glutamate transporter (Homo sapiens); assay: Inhibition of XCT in CpG-A-activated human plasmacytoid dendritic cells at 5 uM assessed as decrease in IFN-alpha production; format: cell-based; details: Plasmacytoid dendritic cell
[23] = molecular target: T2, Cystine/glutamate transporter (Homo sapiens); assay: Inhibition of XCT in CpG-A-activated human plasmacytoid dendritic cells at 5 uM assessed as decrease in TNF production; format: cell-based; details: Plasmacytoid dendritic cell
[24] = molecular target: T2, Cystine/glutamate transporter (Homo sapiens); assay: Inhibition of XCT in CpG-A-activated human plasmacytoid dendritic cells at 5 uM assessed as decrease in S6 phosphorylation; format: cell-based; details: Plasmacytoid dendritic cell
[25] = molecular target: T2, Cystine/glutamate transporter (Homo sapiens); assay: Inhibition of XCT in CpG-A-activated human plasmacytoid dendritic cells at 5 uM assessed as decrease in kynurenine uptake; format: cell-based; details: Plasmacytoid dendritic cell
[26] = molecular target: T2, Cystine/glutamate transporter (Homo sapiens); assay: Inhibition of XCT in CpG-A-activated human plasmacytoid dendritic cells at 1 uM assessed as decrease in IFN-alpha production; format: cell-based; details: Plasmacytoid dendritic cell
[27] = molecular target: T2, Cystine/glutamate transporter (Homo sapiens); assay: Inhibition of XCT in CpG-A-activated human plasmacytoid dendritic cells at 1 uM assessed as decrease in TNF production; format: cell-based; details: Plasmacytoid dendritic cell
[28] = molecular target: T2, Cystine/glutamate transporter (Homo sapiens); assay: Inhibition of XCT in CpG-A-activated human plasmacytoid dendritic cells at 10 uM assessed as decrease in ENPP2 expression; format: cell-based; details: Plasmacytoid dendritic cell
[29] = molecular target: T2, Cystine/glutamate transporter (Homo sapiens); assay: Inhibition of XCT in CpG-A-activated human plasmacytoid dendritic cells at 10 uM assessed as decrease in MYO1E expression; format: cell-based; details: Plasmacytoid dendritic cell
[30] = tested on: Plasmacytoid dendritic cell; assay: Inhibition of SLC7A5/SLC3A2 in CpG-A-stimulated human plasmacytoid dendritic cells at 10 uM assessed as decrease in kynurenine transport; format: cell-based
[31] = molecular target: Glyceraldehyde-3-phosphate dehydrogenase (Homo sapiens) (UniProt P04406); assay: Inhibition of GAPDH in CpG-A-stimulated human plasmacytoid dendritic cells at 10 uM assessed as reduction in TNF production; format: cell-based; details: Plasmacytoid dendritic cell
Sequence of Glyceraldehyde-3-phosphate dehydrogenase (Homo sapiens) (P04406 2-335 limits assumed): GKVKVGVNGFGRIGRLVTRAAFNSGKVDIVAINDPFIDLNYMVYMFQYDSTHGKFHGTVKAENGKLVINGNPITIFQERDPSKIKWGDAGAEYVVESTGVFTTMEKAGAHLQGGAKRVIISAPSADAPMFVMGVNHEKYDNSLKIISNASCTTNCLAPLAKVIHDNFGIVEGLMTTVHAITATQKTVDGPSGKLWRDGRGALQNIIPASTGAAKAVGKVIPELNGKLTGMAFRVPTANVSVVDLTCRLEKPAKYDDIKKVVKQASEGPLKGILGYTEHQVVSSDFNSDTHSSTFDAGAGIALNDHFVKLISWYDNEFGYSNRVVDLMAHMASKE

[32] = molecular target: Glyceraldehyde-3-phosphate dehydrogenase (Homo sapiens) (UniProt P04406); assay: Inhibition of GAPDH in CpG-A-stimulated human plasmacytoid dendritic cells at 10 uM assessed as reduction in IFNa-alpha production; format: cell-based; details: Plasmacytoid dendritic cell
[33] = molecular target: Glyceraldehyde-3-phosphate dehydrogenase (Homo sapiens) (UniProt P04406); assay: Inhibition of GAPDH in CpG-A-stimulated human plasmacytoid dendritic cells at 10 uM assessed as reduction in overall protein synthesis; format: cell-based; details: Plasmacytoid dendritic cell
[34] = molecular target: Glyceraldehyde-3-phosphate dehydrogenase (Homo sapiens) (UniProt P04406); assay: Inhibition of GAPDH in CpG-A-stimulated human plasmacytoid dendritic cells at 10 uM assessed as reduction in secreted lactate levels; format: cell-based; details: Plasmacytoid dendritic cell
[35] = molecular target: Glyceraldehyde-3-phosphate dehydrogenase (Homo sapiens) (UniProt P04406); assay: Inhibition of GAPDH in CpG-A-stimulated human plasmacytoid dendritic cells at 10 uM assessed as reduction in IFN-alpha production in presence of 1 uM oligomycin; format: cell-based; details: Plasmacytoid dendritic cell
[36] = molecular target: Glyceraldehyde-3-phosphate dehydrogenase (Homo sapiens) (UniProt P04406); assay: Inhibition of GAPDH in CpG-A-stimulated human plasmacytoid dendritic cells at 10 uM assessed as reduction in TNF production in presence of 1 uM oligomycin; format: cell-based; details: Plasmacytoid dendritic cell
[37] = tested on: Plasmacytoid dendritic cell; assay: Inhibition of F1F0-ATP synthase in human plasmacytoid dendritic cells at 1 uM assessed as decrease in IFN-alpha production; format: cell-based
[38] = tested on: Plasmacytoid dendritic cell; assay: Inhibition of F1F0-ATP synthase in human plasmacytoid dendritic cells at 1 uM assessed as decrease in TNF production; format: cell-based
[39] = tested on: Plasmacytoid dendritic cell; assay: Inhibition of F1F0-ATP synthase in CpG-A-stimulated human plasmacytoid dendritic cells at 1 uM assessed as reduction in IFN-alpha production in presence of 10 uM heptelidic acid; format: cell-based
[40] = tested on: Plasmacytoid dendritic cell; assay: Inhibition of F1F0-ATP synthase in CpG-A-stimulated human plasmacytoid dendritic cells at 1 uM assessed as reduction in TNF production in presence of 10 uM heptelidic acid; format: cell-based
[41] = molecular target: T2, Cystine/glutamate transporter (Homo sapiens); assay: Inhibition of XCT in CpG-A-activated human plasmacytoid dendritic cells at 25 to 100 uM assessed as decrease in TNF production in presence of 100 uM sulfasalazine; format: cell-based; details: Plasmacytoid dendritic cell, dose 25-100 µM
[42] = molecular target: Large neutral amino acids transporter small subunit 1 (Homo sapiens) (UniProt Q01650); assay: Inhibition of human LAT1 at 100 uM relative to control
Sequence of Large neutral amino acids transporter small subunit 1 (Homo sapiens) (Q01650 whole entry): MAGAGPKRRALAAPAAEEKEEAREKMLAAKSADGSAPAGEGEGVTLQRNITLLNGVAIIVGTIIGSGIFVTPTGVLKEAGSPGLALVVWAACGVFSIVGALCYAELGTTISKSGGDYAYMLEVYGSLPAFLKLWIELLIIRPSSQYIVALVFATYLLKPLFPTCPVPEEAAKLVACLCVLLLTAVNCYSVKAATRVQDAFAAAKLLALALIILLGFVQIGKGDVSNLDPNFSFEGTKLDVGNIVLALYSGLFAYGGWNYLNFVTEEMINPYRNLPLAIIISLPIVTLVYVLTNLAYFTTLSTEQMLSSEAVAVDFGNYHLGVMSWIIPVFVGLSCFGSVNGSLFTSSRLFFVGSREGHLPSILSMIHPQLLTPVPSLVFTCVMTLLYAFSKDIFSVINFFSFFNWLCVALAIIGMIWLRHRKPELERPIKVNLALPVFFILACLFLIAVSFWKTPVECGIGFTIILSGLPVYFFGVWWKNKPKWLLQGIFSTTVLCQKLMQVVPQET

CO[C@H]1CC2CC[C@@H](C)[C@@](O)(O2)C(=O)C(=O)N2CCCC[C@H]2C(=O)O[C@H]([C@H](C)C[C@@H]2CC[C@@H](O)[C@H](OC)C2)CC(=O)[C@H](C)/C=C(\C)[C@@H](O)[C@@H](OC)C(=O)[C@H](C)C[C@H](C)/C=C/C=C/C=C/1C
inhibition [1]: Active
inhibition [2]: Active
inhibition [3]: Active
inhibition [4]: Active
inhibition [5]: Active

O=C(O)c1cc(/N=N/c2ccc(S(=O)(=O)Nc3ccccn3)cc2)ccc1O [SULFASALAZINE]
inhibition [6]: Active
inhibition [7]: Active
inhibition [8]: Active
inhibition [9]: Active
inhibition [10]: Active
inhibition [11]: Active
inhibition [12]: Active
inhibition [13]: Active
IC50 [14]: 10.4 µM

Nc1c(/N=N/c2ccc(Oc3ccc(/N=N/c4cc(S(=O)(=O)O)c5ccccc5c4N)cc3)cc2)cc(S(=O)(=O)O)c2ccccc12
IC50 [14]: 11 µM

CCC(=O)N1CCN(c2ccc(-n3c(=O)ccc4cnc5ccc(-c6cnc7ccccc7c6)cc5c43)cc2C(F)(F)F)CC1
inhibition [15]: Active
inhibition [16]: Active
inhibition [17]: Active
inhibition [18]: Active
inhibition [19]: Active
inhibition [20]: Active
inhibition [21]: Active

CCOc1ccccc1-n1c(C(C)N2CCN(C(=O)COc3ccc(Cl)cc3)CC2)nc2ccccc2c1=O (stereo not given)
inhibition [22]: Active
inhibition [23]: Active
inhibition [24]: Active
inhibition [25]: Active
inhibition [26]: Active
inhibition [27]: Active
inhibition [28]: Active
inhibition [29]: Active

Nc1c(/N=N/c2ccc(SSc3ccc(/N=N/c4cc(S(=O)(=O)O)c5ccccc5c4N)cc3)cc2)cc(S(=O)(=O)O)c2ccccc12
IC50 [14]: 4.3 µM

NC1(C(=O)O)CC2CCC1C2 (stereo not given)
inhibition [30]: Active

CC(C)[C@H]1CC[C@@]2(CO2)[C@H]2C(=O)OCC(C(=O)O)=C[C@H]12
inhibition [31]: Active
inhibition [32]: Active
inhibition [33]: Active
inhibition [34]: Active
inhibition [35]: Active
inhibition [36]: Active

Nc1ccc(/N=N/c2ccc(-c3ccc(/N=N/c4ccc(N)c5ccc(S(=O)(=O)O)cc45)cc3)cc2)c2cc(S(=O)(=O)O)ccc12
IC50 [14]: 4.3 µM

Nc1c(/N=N/c2ccc(Br)cc2)cc(S(=O)(=O)O)c2ccccc12
IC50 [14]: 25 µM

Cc1cc(Nc2nc(N[C@@H](C)c3ncc(F)cn3)ncc2Cl)[nH]n1
inhibition [19]: Active

Nc1c(/N=N/c2ccc(I)cc2)cc(S(=O)(=O)O)c2ccccc12
IC50 [14]: 14 µM

CC[C@H]1/C=C/C=C/C[C@@H](C)[C@H](O)[C@@](C)(O)C(=O)[C@@H](C)[C@H](O)[C@@H](C)C(=O)[C@@H](C)[C@H](O)[C@@H](C)/C=C/C(=O)O[C@@H]2[C@H](C)[C@H](CC1)O[C@]1(CC[C@H](C)[C@H](C[C@@H](C)O)O1)[C@H]2C
inhibition [37]: Active
inhibition [38]: inactive
inhibition [39]: Active
inhibition [40]: Active

CCS(=O)(=O)N1CC(CC#N)(n2cc(-c3ncnc4[nH]ccc34)cn2)C1
inhibition [41]: Active

Nc1c(/N=N/c2ccc(Oc3ccccc3)cc2)cc(S(=O)(=O)O)c2ccccc12
IC50 [14]: 14 µM

N#Cc1cc(Cl)ccc1/N=c1\ssnc1Cl
inhibition [42]: > 90%

FC(F)(F)Oc1ccc(/N=c2\ssnc2Cl)cc1Cl
inhibition [42]: > 90%
